According to ChEMBL document CHEMBL1139078, “ortho-Substituted azoles as selective and dual inhibitors of VEGF receptors 1 and 2” (Bioorg Med Chem Lett, 2007):

Experiments:
[1] = biological target: T1, Vascular endothelial growth factor receptor 2 (Homo sapiens, UniProt P35968); experiment: Inhibition of VEGFR2 by cell-based assay; format: functional
[2] = Intrinsic permeability across Caco-2 cell monolayers; settings: human
[3] = biological target: T1, Vascular endothelial growth factor receptor 2; experiment: Inhibition of VEGFR2 by HTRF assay
[4] = biological target: T2, Vascular endothelial growth factor receptor 1 (Homo sapiens, UniProt P17948); experiment: Inhibition of VEGFR1 by HTRF assay
Target sequence in this assay (P17948 whole entry, looked up): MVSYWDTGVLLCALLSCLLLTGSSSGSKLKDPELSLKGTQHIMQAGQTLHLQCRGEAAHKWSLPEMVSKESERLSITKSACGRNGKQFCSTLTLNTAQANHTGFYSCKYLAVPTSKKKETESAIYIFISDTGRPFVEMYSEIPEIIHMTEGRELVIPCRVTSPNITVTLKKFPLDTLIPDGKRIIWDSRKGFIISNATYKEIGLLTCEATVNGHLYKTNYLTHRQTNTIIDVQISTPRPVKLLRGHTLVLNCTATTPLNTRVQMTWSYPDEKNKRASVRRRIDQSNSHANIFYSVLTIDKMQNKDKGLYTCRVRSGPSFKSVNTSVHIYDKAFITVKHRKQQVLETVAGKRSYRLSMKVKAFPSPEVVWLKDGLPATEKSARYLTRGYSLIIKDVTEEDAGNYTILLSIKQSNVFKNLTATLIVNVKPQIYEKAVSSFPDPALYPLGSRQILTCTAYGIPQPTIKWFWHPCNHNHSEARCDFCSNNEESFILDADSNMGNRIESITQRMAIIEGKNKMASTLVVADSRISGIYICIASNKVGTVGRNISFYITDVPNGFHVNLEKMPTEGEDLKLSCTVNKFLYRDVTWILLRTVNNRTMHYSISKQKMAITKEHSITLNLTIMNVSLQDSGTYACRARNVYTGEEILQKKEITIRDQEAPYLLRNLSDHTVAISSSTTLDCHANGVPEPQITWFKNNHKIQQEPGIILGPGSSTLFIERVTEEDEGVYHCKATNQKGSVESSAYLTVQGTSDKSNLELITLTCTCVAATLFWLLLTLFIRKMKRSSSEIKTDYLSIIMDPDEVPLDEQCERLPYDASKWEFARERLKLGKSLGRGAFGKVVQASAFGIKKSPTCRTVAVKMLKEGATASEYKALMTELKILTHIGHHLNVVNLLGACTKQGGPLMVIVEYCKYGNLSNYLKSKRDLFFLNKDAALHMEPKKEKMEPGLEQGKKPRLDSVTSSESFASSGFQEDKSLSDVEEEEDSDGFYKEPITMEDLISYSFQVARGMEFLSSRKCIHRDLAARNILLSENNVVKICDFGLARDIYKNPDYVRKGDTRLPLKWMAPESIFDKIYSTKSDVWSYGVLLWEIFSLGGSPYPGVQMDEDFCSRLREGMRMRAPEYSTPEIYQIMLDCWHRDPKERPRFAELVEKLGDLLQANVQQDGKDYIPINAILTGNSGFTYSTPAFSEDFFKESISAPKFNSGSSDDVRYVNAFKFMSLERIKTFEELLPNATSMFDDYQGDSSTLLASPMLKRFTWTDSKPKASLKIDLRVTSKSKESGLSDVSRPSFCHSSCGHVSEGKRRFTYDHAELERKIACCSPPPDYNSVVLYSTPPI

[5] = biological target: T2, Vascular endothelial growth factor receptor 1; experiment: Inhibition of VEGFR1 by HTRF assay
Target sequence in this assay (P17948 whole entry): as the sequence (P17948 whole entry, looked up) above

[6] = biological target: T1, Vascular endothelial growth factor receptor 2; experiment: Inhibition of VEGFR2 by HTRF assay
[7] = biological target: T1, Vascular endothelial growth factor receptor 2; experiment: Inhibition of VEGFR2 by [32P]ATP-competitive radioassay

T1 sequence (P35968 whole entry): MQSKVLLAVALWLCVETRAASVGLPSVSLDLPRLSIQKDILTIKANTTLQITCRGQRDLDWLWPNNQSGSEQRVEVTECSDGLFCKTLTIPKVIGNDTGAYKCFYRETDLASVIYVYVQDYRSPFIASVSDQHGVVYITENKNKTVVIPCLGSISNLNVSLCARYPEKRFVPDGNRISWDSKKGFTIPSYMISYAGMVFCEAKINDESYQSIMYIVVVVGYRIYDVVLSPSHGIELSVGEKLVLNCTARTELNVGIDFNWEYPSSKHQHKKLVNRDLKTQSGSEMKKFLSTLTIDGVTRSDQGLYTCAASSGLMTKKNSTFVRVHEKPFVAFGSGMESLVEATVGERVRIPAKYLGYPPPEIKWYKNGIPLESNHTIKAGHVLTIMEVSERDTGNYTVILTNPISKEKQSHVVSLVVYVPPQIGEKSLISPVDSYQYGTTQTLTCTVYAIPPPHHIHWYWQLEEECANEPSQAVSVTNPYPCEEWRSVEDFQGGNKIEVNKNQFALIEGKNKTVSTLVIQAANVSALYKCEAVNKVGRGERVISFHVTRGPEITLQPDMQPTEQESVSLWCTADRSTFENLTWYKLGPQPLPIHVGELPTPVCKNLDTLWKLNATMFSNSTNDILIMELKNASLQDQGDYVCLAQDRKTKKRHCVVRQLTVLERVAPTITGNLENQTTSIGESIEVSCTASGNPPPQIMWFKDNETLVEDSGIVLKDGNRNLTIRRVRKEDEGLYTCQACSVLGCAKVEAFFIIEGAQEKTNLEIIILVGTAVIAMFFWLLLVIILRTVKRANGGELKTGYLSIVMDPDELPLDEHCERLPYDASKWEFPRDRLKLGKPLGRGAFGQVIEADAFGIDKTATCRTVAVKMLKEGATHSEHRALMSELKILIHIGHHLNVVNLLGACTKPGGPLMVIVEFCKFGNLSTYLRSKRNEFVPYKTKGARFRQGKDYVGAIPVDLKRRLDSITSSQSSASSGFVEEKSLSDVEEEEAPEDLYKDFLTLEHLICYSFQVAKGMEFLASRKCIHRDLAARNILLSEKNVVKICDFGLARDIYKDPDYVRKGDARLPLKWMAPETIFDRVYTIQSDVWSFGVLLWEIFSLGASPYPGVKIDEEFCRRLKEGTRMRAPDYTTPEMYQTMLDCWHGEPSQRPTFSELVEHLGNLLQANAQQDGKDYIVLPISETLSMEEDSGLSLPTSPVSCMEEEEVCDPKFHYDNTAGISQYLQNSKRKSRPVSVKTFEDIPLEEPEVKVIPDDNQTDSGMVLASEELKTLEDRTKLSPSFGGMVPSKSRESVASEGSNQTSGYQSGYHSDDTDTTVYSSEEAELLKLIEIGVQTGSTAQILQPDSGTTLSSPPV

Row | Structure (SMILES) | IC50 [1] [nM] | Papp [2] [×10⁻⁶ cm/s] | IC50 [3] [nM] | IC50 [4] [nM] | IC50 [5] [nM] | IC50 [6] [nM] | Ki [7] [nM]
1 | Cn1cnc(NCc2cccnc2)c1C(=O)Nc1ccc(C(F)(F)F)cc1 | > 10000 | – | > 10000 | > 10000 | – | – | –
2 | Cn1ncc(NCc2ccncc2)c1C(=O)Nc1cnc2ccccc2c1 | 1140 | – | 280 | 520 | – | – | –
3 | Cn1ncc(NCc2ccncc2)c1C(=O)Nc1ccc(Cc2ccccc2)cc1 | > 10000 | – | 5570 | > 10000 | – | – | –
4 | Cn1cnc(NCc2ccc3c(c2)OCO3)c1C(=O)Nc1cccc(C(F)(F)F)c1 | > 10000 | – | – | – | 2270 | 3120 | –
5 | Cn1cnc(NCc2ccncc2)c1C(=O)Nc1ccc(-c2ccccc2)cc1 | > 10000 | – | 3770 | > 10000 | – | – | –
6 | Cc1noc(NCc2ccncc2)c1C(=O)Nc1ccc(Cl)c(Cl)c1 | 930 | – | 970 | 1250 | – | – | –
7 | Cc1noc(NCc2ccncc2)c1C(=O)Nc1ccc(Cc2ccccc2)cc1 | > 10000 | – | 5800 | > 10000 | – | – | –
8 | Cc1noc(NCc2ccncc2)c1C(=O)Nc1cccc(Cl)c1 | > 10000 | – | > 10000 | > 10000 | – | – | –
9 | Cn1cnc(NCc2ccncc2)c1C(=O)Nc1ccc(C(F)(F)F)cc1 | 9600 | – | 1980 | 6000 | – | – | –
10 | Cn1cnc(NCc2ccncc2)c1C(=O)Nc1ccc2cn[nH]c2c1 | > 10000 | – | 5730 | > 10000 | – | – | –
11 | Cc1noc(NCc2ccncc2)c1C(=O)Nc1cnc2ccccc2c1 | 3540 | – | 940 | 1220 | – | – | –
12 | Cn1ncc(NCc2cccnc2)c1C(=O)Nc1cccc(C(F)(F)F)c1 | > 10000 | – | > 10000 | > 10000 | – | – | –
13 | COc1ccc(NC(=O)c2c(C)noc2NCc2ccncc2)cc1OC | > 10000 | – | 1190 | 3350 | – | – | –
14 | Cc1noc(NCc2ccncc2)c1C(=O)Nc1ccc(Cl)cc1 | > 10000 | – | > 10000 | > 10000 | – | – | –
15 | Cn1ncc(NCc2ccc3c(c2)OCO3)c1C(=O)Nc1cccc(C(F)(F)F)c1 | > 10000 | – | – | – | 5290 | > 10000 | –
16 | Cc1ccc(NC(=O)c2c(NCc3ccncc3)ncn2C)c(F)c1 | 1250 | – | 840 | 1350 | – | – | –

The next compounds have a lower IC50 [1] than those just listed; values first:

Row | IC50 [1] [nM] | Papp [2] [×10⁻⁶ cm/s] | IC50 [3] [nM] | IC50 [4] [nM] | IC50 [5] [nM] | IC50 [6] [nM] | Ki [7] [nM] | Structure (SMILES)
17 | 590 | – | 870 | 1440 | – | – | – | Cc1cc(NC(=O)c2c(C)noc2NCc2ccncc2)ccc1C(F)(F)F
18 | 550 | – | 650 | 790 | – | – | – | Cn1cnc(NCc2ccncc2)c1C(=O)Nc1cccc(C(F)(F)F)c1
19 | 470 | – | 2060 | 2440 | – | – | – | Cn1ncc(NCc2ccncc2)c1C(=O)Nc1cccc(OC(F)(F)F)c1
20 | 210 | – | 1120 | 1230 | – | – | – | Cn1ncc(NCc2ccncc2)c1C(=O)Nc1cc(C(F)(F)F)cc(C(F)(F)F)c1
21 | 180 | – | 370 | 560 | – | – | – | Cc1noc(NCc2ccncc2)c1C(=O)Nc1ccc(C(F)(F)F)cc1
22 | 170 | 6.15 | 950 | 1260 | – | – | – | Cn1cnc(NCc2ccncc2)c1C(=O)Nc1ccc(Cl)c(C(F)(F)F)c1
23 | 130 | – | 840 | 920 | – | – | – | Cn1ncc(NCc2ccncc2)c1C(=O)Nc1ccc(C(F)(F)F)c(C(F)(F)F)c1
24 | 130 | – | 280 | 310 | – | – | – | Cn1ncc(NCc2ccncc2)c1C(=O)Nc1ccc(C(F)(F)F)cc1
25 | 110 | – | 1150 | 1430 | – | – | – | Cn1cnc(NCc2ccncc2)c1C(=O)Nc1ccc(OC(F)(F)F)cc1
26 | 110 | – | 580 | 690 | – | – | – | Cn1cnc(NCc2ccncc2)c1C(=O)Nc1ccc(C(F)(F)F)c(C(F)(F)F)c1
27 | 96 | 7.03 | 370 | 550 | – | – | – | Cn1cnc(NCc2ccncc2)c1C(=O)Nc1ccc(Cl)c(Cl)c1
28 | 91 | – | 350 | 510 | – | – | – | COc1ccc(NC(=O)c2c(NCc3ccncc3)cnn2C)cc1OC
29 | 88 | 3.6 | 290 | 350 | – | – | – | Cn1cnc(NCc2ccncc2)c1C(=O)Nc1ccc(C(F)(F)F)c(Cl)c1
30 | 79 | – | 210 | 440 | – | – | – | Cn1ncc(NCc2ccncc2)c1C(=O)Nc1ccc(C(F)(F)F)c(Cl)c1
31 | 75 | 6.2 | 180 | 270 | – | – | – | CC(C)c1ccc(NC(=O)c2c(NCc3ccncc3)ncn2C)cc1
32 | 69 | 5.52 | 330 | 560 | – | – | – | Cc1cc(NC(=O)c2c(NCc3ccncc3)cnn2C)ccc1C(F)(F)F
33 | 64 | 5.42 | 730 | 1870 | – | – | 170 | Cn1ncc(NCc2ccncc2)c1C(=O)Nc1ccc(OC(F)(F)F)cc1
34 | 64 | 7.55 | 87 | 110 | – | – | 200 | Cn1cnc(NCc2ccncc2)c1C(=O)Nc1ccc(C(C)(C)C)cc1
